Source: patent US11571485B2, “Peptides and antibodies for detecting changes in alzheimer's disease brain and methods of use thereof” (Sanford Burnham Prebys Medical Discovery Institute, priority 2016, dated 2023)

How the values were obtained:
[1] = test system: mTHY-1/α-synuclein overexpressing mouse model of Parkinson's disease; test: In vivo homing in Parkinson's disease mouse model; conditions: systemically injected
Description: All animal experiments were conducted under an approved protocol of the Institutional Animal Care and Use Committee of Sanford Burnham Prebys Medical Discovery Institute. The following transgenic mouse models were used for peptide homing studies—hAPP-J20 ([…], Nature genetics 1, 345-347 (1992)), Tg2576 (Jacobsen et al., Proc Natl Acad Sci USA 103, 5161-5166 (2006)), and mTHY-1-α-synuclein model (Chesselet et al., Neurotherapeutics 9, 297-314 (2012)). The P13 glioblastoma model is a patient-derived orthotopic xenograft model (Bougnaud et al., Oncotarget, (2016)). Spheroids were cultured as described previously (Bjerkvig et al., J Neurosurg 72, 463-475 (1990)). After two weeks in culture, spheroids (volume 2.5 μl) were stereotactically implanted into the brains of nude mice. Mice were used approximately 6 weeks after tumors were induced, when mice started presenting neurological symptoms. The acute brain injury model was setup as previously described (Mann et al., Nature communications 7, 11980 (2016)). Briefly, 8 to 10 week-old male BL6 mice were anaesthetized with 4% isoflurane in 70% N2O and 30% O2, and a 5-mm craniotomy was performed using a portable drill and a trephine over the right parietotemporal cortex using a stereotactic frame. […]

human AD brain sections = test: Ex vivo overlay binding to human AD brain sections
Description: PFA fixed sections were incubated in PBS for 10 minutes, followed by PBS-Triton-x-100 (0.2%) for 10 minutes. Sections were rinsed with PBST, mounted in a slide holder, and subsequently washed with PBS-T during 12 minutes. Slides were blocked with blocking buffer for 60 minutes at room temperature. Then, peptides were incubated at a concentration of 10 μg/mL dissolved in concentrated blocking buffer, for three hours at room temperature. Sections were then washed with three 4-minute washes of PBS-T, and subsequently fixed with PFA for 10 minutes, followed by three 3-minute washes with PBS-T. Sections were then incubated with primary antibody at 1/200 in diluted blocking buffer overnight at 4° C. Later, sections were washed with three 4-minute washes with PBS-T. Slides were then incubated with secondary antibody at 1/200 dilution in diluted blocking buffer for 30 minutes at room temperature, followed by three 4-minute washes of PBS-T. Sections were then counterstained with DAPI for 5 minutes, washed with PBS-T and mounted.
Postmortem human brain samples were obtained from the New York Brain Bank at Columbia University, New York. The patient was a person with a diagnosis of AD neuropathologic changes ([A3, B3, C3]). The normal brain tissue was obtained from BioChain Institute Inc. (Newark, Calif.). The donor was a person without any neurologic diagnosis on detailed neuropathologic evaluation. The Parkinson's disease brain tissue was obtained from UCSD Pathology bank. Frozen brain tissue was sectioned for immunohistochemistry and ex vivo overlay binding with FAM-peptides.

- Binding to human AD brain sections (human AD brain sections; overlay): bound strongly to the hippocampal region
Sequence: CDAGRKQKC
- Accumulation in Parkinson's model brain [1]: accumulated in GFAP-positive astrocytes
- Inhibition of binding to human AD sections by anti-CTGF antibody (human AD brain sections; pre-incubation with anti-CTGF antibody): partially inhibited by pre-incubation with anti-CTGF antibody
